Assay results reported in US8192962B2, “Processes for detecting toxic substances” (Daikin Industries, Ltd., priority 2001, dated 2012).

Test system: Metabolism protein genes
Experiment: DNA chip mRNA expression in yeast, metabolism protein genes (Table 7)
Format: cell-based, Saccharomyces cerevisiae S288C
Experimental: Yeast (Saccharomyces cerevisiae S288C (α SUC2mal mel gap2 CUP1)) were incubated at 25° C. on YPD medium (yeast extract 1%, polypepton 2%, glucose 2%). One of toxic chemical substances was added to the cells at logarithmic growth phase, and the cells were further incubated for two hours. Cells were cultured without any chemical substance in the same condition, and were used as control. Concentrations of the chemical substances were defined to inhibit the growth of the yeast but not lead to death.
After completion of the incubation, the culture was centrifuged to collect the cells. To the cells, sodium acetate buffer (50 mM sodium acetate, 10 mM EDTA, 1% SDS) was added, and the mixture was shaken at 65° C. for five minutes, followed by returning to room temperature, and obtaining the supernatant, of which the procedures were repeated two times. To the supernatant, ½ amount of a solution of phenol/chloroform was added, and the mixture was centrifuged to give a supernatant, which was added with an equal amount of chloroform, and the mixture was centrifuged to give a supernatant. To the supernatant, an equal amount of isopropanol containing 0.3 M sodium acetate was added, and the mixture was allowed to stand at room temperature for 30 minutes, after which the mixture was centrifuged to give a sediment of the whole RNAs. Seventy % ethanol was added to the sediment, and the mixture was again centrifuged to give a sediment, which was then dried and dissolved in water. mRNA was isolated from the whole RNAs as followings. In view of the fact that a poly A chain is attached to the 3′ terminus of mRNA, a polynucleotide having a poly T structure which was immobilized on the surface of latex beads was used to trap the mRNA, and then the mRNA was washed and eluted with spine column (Oligotex-dT30<Super>mRNA Purification Kit, Takara). Reverse transcription of the mRNA was conducted with a reverse transcriptase (Super Script II Reverse Transcriptase; catalogue No. 18064-014, GibcoBRL) using fluorescence-labeled nucleotides to give cDNAs that were introduced with Cy3-dUTP or Cy5-dUTP during the reverse transcription.
The labeled cDNAs were dissolved in TE buffer (10mM Tris-HCl/1 mM EDTA, pH8.0), and the solution was dropped on the DNA chip containing the whole genes of yeast (DNA Chip Research Inc. Japan) so that the cDNAs were hybridized on the DNA chip at 65° C. for over 12 hours. The fluoresces intensity of the DNA chip was read with a scanner, and the ratio relative to the fluorescence intensity resulting from the absence of chemical substance was estimated as the following, which is shown in Tables 1 to 9: […]

## [Cl][Cd][Cl] [(2), CdCl2]
Yeast gene YAL012W
  The level of expressed mRNA in the presence of chemical substance/The level of expressed mRNA in the absence of chemical substance: 6.5
Yeast gene YAL038W
  The level of expressed mRNA in the presence of chemical substance/The level of expressed mRNA in the absence of chemical substance: 1.0
Yeast gene YBR003W
  level of expressed mRNA in the presence/in the absence of chemical substance: 0.8
Yeast gene YBR011C
  level of expressed mRNA in the presence/in the absence of chemical substance: 1.8
Yeast gene YBR020W
  level of expressed mRNA in the presence/in the absence of chemical substance: 0.5
Yeast gene YBR023C
  The level of expressed mRNA in the presence of chemical substance/The level of expressed mRNA in the absence of chemical substance: 0.8
Yeast gene YBR029C
  The level of expressed mRNA in the presence of chemical substance/The level of expressed mRNA in the absence of chemical substance: 0.2
Yeast gene YBR183W
  The level of expressed mRNA in the presence of chemical substance/The level of expressed mRNA in the absence of chemical substance: 1.5
Yeast gene YBR222C
  The level of expressed mRNA in the presence of chemical substance/The level of expressed mRNA in the absence of chemical substance: 1.2
Yeast gene YBR256C
  The level of expressed mRNA in the presence of chemical substance/The level of expressed mRNA in the absence of chemical substance: 1.4
Yeast gene YCL009C
  The level of expressed mRNA in the presence of chemical substance/The level of expressed mRNA in the absence of chemical substance: 0.9
Yeast gene YCL064C
  The level of expressed mRNA in the presence of chemical substance/The level of expressed mRNA in the absence of chemical substance: 0.6
Yeast gene YCR010C
  level of expressed mRNA in the presence/in the absence of chemical substance: 1.6
Yeast gene YCR034W
  level of expressed mRNA in the presence/in the absence of chemical substance: 0.4
Yeast gene YCR048W
  The level of expressed mRNA in the presence of chemical substance/The level of expressed mRNA in the absence of chemical substance: 1.1
Yeast gene YCR098C
  The level of expressed mRNA in the presence of chemical substance/The level of expressed mRNA in the absence of chemical substance: 3.0
Yeast gene YDR019C
  The level of expressed mRNA in the presence of chemical substance/The level of expressed mRNA in the absence of chemical substance: 0.5
Yeast gene YDR050C
  level of expressed mRNA in the presence/in the absence of chemical substance: 1.3
Yeast gene YDR073W
  level of expressed mRNA in the presence/in the absence of chemical substance: 0.9
Yeast gene YDR123C
  level of expressed mRNA in the presence/in the absence of chemical substance: 0.8
Yeast gene YDR178W
  level of expressed mRNA in the presence/in the absence of chemical substance: 2.0
Yeast gene YDR277C
  level of expressed mRNA in the presence/in the absence of chemical substance: 1.2
Yeast gene YDR284C
  level of expressed mRNA in the presence/in the absence of chemical substance: 1.5
Yeast gene YDR345C
  level of expressed mRNA in the presence/in the absence of chemical substance: 0.9
Yeast gene YDR380W
  The level of expressed mRNA in the presence of chemical substance/The level of expressed mRNA in the absence of chemical substance: 0.8
Yeast gene YDR400W
  level of expressed mRNA in the presence/in the absence of chemical substance: 2.0
Yeast gene YDR408C
  level of expressed mRNA in the presence/in the absence of chemical substance: 1.0
Yeast gene YDR483W
  level of expressed mRNA in the presence/in the absence of chemical substance: 1.0
Yeast gene YDR497C
  The level of expressed mRNA in the presence of chemical substance/The level of expressed mRNA in the absence of chemical substance: 0.5
Yeast gene YDR502C
  The level of expressed mRNA in the presence of chemical substance/The level of expressed mRNA in the absence of chemical substance: 2.8
Yeast gene YDR516C
  The level of expressed mRNA in the presence of chemical substance/The level of expressed mRNA in the absence of chemical substance: 1.5
Yeast gene YEL063C
  level of expressed mRNA in the presence/in the absence of chemical substance: 0.8
Yeast gene YER015W
  level of expressed mRNA in the presence/in the absence of chemical substance: 0.9
Yeast gene YER026C
  The level of expressed mRNA in the presence of chemical substance/The level of expressed mRNA in the absence of chemical substance: 0.6
Yeast gene YER053C
  The level of expressed mRNA in the presence of chemical substance/The level of expressed mRNA in the absence of chemical substance: 1.8
Yeast gene YER069W
  The level of expressed mRNA in the presence of chemical substance/The level of expressed mRNA in the absence of chemical substance: 0.8
Yeast gene YER081W
  level of expressed mRNA in the presence/in the absence of chemical substance: 1.9
Yeast gene YER096W
  The level of expressed mRNA in the presence of chemical substance/The level of expressed mRNA in the absence of chemical substance: 2.3
Yeast gene YER120W
  level of expressed mRNA in the presence/in the absence of chemical substance: 1.1
Yeast gene YER178W
  The level of expressed mRNA in the presence of chemical substance/The level of expressed mRNA in the absence of chemical substance: 0.9
Yeast gene YFL011W
  level of expressed mRNA in the presence/in the absence of chemical substance: 0.7
Yeast gene YFL014W
  The level of expressed mRNA in the presence of chemical substance/The level of expressed mRNA in the absence of chemical substance: 7.2
Yeast gene YFL030W
  The level of expressed mRNA in the presence of chemical substance/The level of expressed mRNA in the absence of chemical substance: 6.0
Yeast gene YFL031W
  The level of expressed mRNA in the presence of chemical substance/The level of expressed mRNA in the absence of chemical substance: 1.3
Yeast gene YFL056C
  The level of expressed mRNA in the presence of chemical substance/The level of expressed mRNA in the absence of chemical substance: 2.3
Yeast gene YFL057C
  The level of expressed mRNA in the presence of chemical substance/The level of expressed mRNA in the absence of chemical substance: 5.8
Yeast gene YFR047C
  The level of expressed mRNA in the presence of chemical substance/The level of expressed mRNA in the absence of chemical substance: 4.0
Yeast gene YGL012W
  level of expressed mRNA in the presence/in the absence of chemical substance: 0.8
Yeast gene YGL022W
  The level of expressed mRNA in the presence of chemical substance/The level of expressed mRNA in the absence of chemical substance: 0.8
Yeast gene YGL115W
  level of expressed mRNA in the presence/in the absence of chemical substance: 0.6
Yeast gene YGL126W
  The level of expressed mRNA in the presence of chemical substance/The level of expressed mRNA in the absence of chemical substance: 1.3
Yeast gene YGL205W
  level of expressed mRNA in the presence/in the absence of chemical substance: 0.9
Yeast gene YGL209W
  The level of expressed mRNA in the presence of chemical substance/The level of expressed mRNA in the absence of chemical substance: 1.6
Yeast gene YGL248W
  The level of expressed mRNA in the presence of chemical substance/The level of expressed mRNA in the absence of chemical substance: 1.3
Yeast gene YGR037C
  The level of expressed mRNA in the presence of chemical substance/The level of expressed mRNA in the absence of chemical substance: 1.2
Yeast gene YGR055W
  The level of expressed mRNA in the presence of chemical substance/The level of expressed mRNA in the absence of chemical substance: 5.7
Yeast gene YGR096W
  level of expressed mRNA in the presence/in the absence of chemical substance: 1.0
Yeast gene YGR191W
  level of expressed mRNA in the presence/in the absence of chemical substance: 0.7
Yeast gene YGR194C
  The level of expressed mRNA in the presence of chemical substance/The level of expressed mRNA in the absence of chemical substance: 1.0
Yeast gene YGR204W
  level of expressed mRNA in the presence/in the absence of chemical substance: 1.1
Yeast gene YGR256W
  The level of expressed mRNA in the presence of chemical substance/The level of expressed mRNA in the absence of chemical substance: 1.5
Yeast gene YGR282C
  The level of expressed mRNA in the presence of chemical substance/The level of expressed mRNA in the absence of chemical substance: 0.7
Yeast gene YGR288W
  level of expressed mRNA in the presence/in the absence of chemical substance: 0.5
Yeast gene YHR025W
  level of expressed mRNA in the presence/in the absence of chemical substance: 0.8
Yeast gene YHR111W
  The level of expressed mRNA in the presence of chemical substance/The level of expressed mRNA in the absence of chemical substance: 1.3
Yeast gene YHR123W
  level of expressed mRNA in the presence/in the absence of chemical substance: 1.2
Yeast gene YHR137W
  The level of expressed mRNA in the presence of chemical substance/The level of expressed mRNA in the absence of chemical substance: 1.0
Yeast gene YHR174W
  The level of expressed mRNA in the presence of chemical substance/The level of expressed mRNA in the absence of chemical substance: 1.4
Yeast gene YHR176W
  The level of expressed mRNA in the presence of chemical substance/The level of expressed mRNA in the absence of chemical substance: 2.0
Yeast gene YHR210C
  level of expressed mRNA in the presence/in the absence of chemical substance: 1.0
Yeast gene YIL006W
  level of expressed mRNA in the presence/in the absence of chemical substance: 1.1
Yeast gene YIL045W
  The level of expressed mRNA in the presence of chemical substance/The level of expressed mRNA in the absence of chemical substance: 1.4
Yeast gene YIL107C
  The level of expressed mRNA in the presence of chemical substance/The level of expressed mRNA in the absence of chemical substance: 0.8
Yeast gene YIL154C
  The level of expressed mRNA in the presence of chemical substance/The level of expressed mRNA in the absence of chemical substance: 1.3
Yeast gene YIL155C
  The level of expressed mRNA in the presence of chemical substance/The level of expressed mRNA in the absence of chemical substance: 0.7
Yeast gene YIR034C
  The level of expressed mRNA in the presence of chemical substance/The level of expressed mRNA in the absence of chemical substance: 1.1
Yeast gene YIR036C
  The level of expressed mRNA in the presence of chemical substance/The level of expressed mRNA in the absence of chemical substance: 1.7
Yeast gene YJL031C
  The level of expressed mRNA in the presence of chemical substance/The level of expressed mRNA in the absence of chemical substance: 1.2
Yeast gene YJL068C
  The level of expressed mRNA in the presence of chemical substance/The level of expressed mRNA in the absence of chemical substance: 2.7
Yeast gene YJL088W
  The level of expressed mRNA in the presence of chemical substance/The level of expressed mRNA in the absence of chemical substance: 0.8
Yeast gene YJL099W
  The level of expressed mRNA in the presence of chemical substance/The level of expressed mRNA in the absence of chemical substance: 1.2
Yeast gene YJL121C
  level of expressed mRNA in the presence/in the absence of chemical substance: 0.5
Yeast gene YJL167W
  level of expressed mRNA in the presence/in the absence of chemical substance: 1.4
Yeast gene YJL172W
  The level of expressed mRNA in the presence of chemical substance/The level of expressed mRNA in the absence of chemical substance: 2.1
Yeast gene YJL216C
  level of expressed mRNA in the presence/in the absence of chemical substance: 4.7
Yeast gene YJL219W
  The level of expressed mRNA in the presence of chemical substance/The level of expressed mRNA in the absence of chemical substance: 2.5
Yeast gene YJR077C
  level of expressed mRNA in the presence/in the absence of chemical substance: 1.1
Yeast gene YJR137C
  The level of expressed mRNA in the presence of chemical substance/The level of expressed mRNA in the absence of chemical substance: 2.9
Yeast gene YJR143C
  level of expressed mRNA in the presence/in the absence of chemical substance: 0.6
Yeast gene YJR148W
  The level of expressed mRNA in the presence of chemical substance/The level of expressed mRNA in the absence of chemical substance: 1.4
